Results on eleven molecules are retold here after ChEMBL document CHEMBL2146447, “Synthesis and antimicrobial activity of amido linked pyrrolyl and pyrazolyl-oxazoles, thiazoles and imidazoles” (2011).

Some results are limits rather than exact numbers.

What all share (assay type): functional
Test [1] concerns Aspergillus niger. Kind of test: Antifungal activity against Aspergillus niger at 100 ug after 48 hrs by agar well diffusion method. To be noted: read-out: DIZ. For orientation: In agar diffusion tests the substance spreads into inoculated agar from a disc or well.
Test [2] has as its system Bacillus subtilis. Kind of test: Antibacterial activity against Bacillus subtilis at 100 ug after 24 hrs by agar well diffusion method. Conditions: read-out: DIZ.
The test system of test [3] is Klebsiella pneumoniae. Kind of test: Antibacterial activity against Klebsiella pneumoniae at 100 ug after 24 hrs by agar well diffusion method. To be noted: read-out: DIZ.
For test [4], the system named is Klebsiella pneumoniae. Kind of test: Bactericidal activity against Klebsiella pneumoniae after 24 hrs by broth dilution method.
Test [5] concerns Klebsiella pneumoniae. Kind of test: Antibacterial activity against Klebsiella pneumoniae at 50 ug after 24 hrs by agar well diffusion method. Conditions: read-out: DIZ.
In test [6] the test system is Bacillus subtilis. Kind of test: Antibacterial activity against Bacillus subtilis at 50 ug after 24 hrs by agar well diffusion method. To be noted: read-out: DIZ.
Test [7] has as its system Pseudomonas aeruginosa. Kind of test: Antibacterial activity against Pseudomonas aeruginosa at 100 ug after 24 hrs by agar well diffusion method. To be noted: read-out: DIZ.
Test [8] concerns Aspergillus niger. Kind of test: Fungicidal activity against Aspergillus niger after 48 hrs by NCCLS M27-P broth dilution method. (In broth dilution the organism is exposed to a series of concentrations in liquid medium.)
For test [9], the system named is Staphylococcus aureus. Kind of test: Antibacterial activity against Staphylococcus aureus at 35 degC after 24 hrs by NCCLS M7-A3 method.
Test [10] deals with Pseudomonas aeruginosa. Kind of test: Bactericidal activity against Pseudomonas aeruginosa after 24 hrs by NCCLS M7-A3 method.
Test [11] deals with Aspergillus niger. Kind of test: Antifungal activity against Aspergillus niger at 50 ug after 48 hrs by agar well diffusion method. Conditions: read-out: DIZ.
Test [12] has as its system Penicillium chrysogenum. Kind of test: Fungicidal activity against Penicillium chrysogenum after 48 hrs by NCCLS M27-P broth dilution method.
Test [13] has as its system Penicillium chrysogenum. Kind of test: Antifungal activity against Penicillium chrysogenum at 50 ug after 48 hrs by agar well diffusion method. Conditions: read-out: DIZ.
In test [14] the test system is Bacillus subtilis. Kind of test: Bactericidal activity against Bacillus subtilis after 24 hrs by broth dilution method.
Test [15] relates to Staphylococcus aureus. Kind of test: Antibacterial activity against Staphylococcus aureus assessed at 50 ug after 24 hrs by agar well diffusion method. Conditions: read-out: DIZ.
In test [16] the test system is Staphylococcus aureus. Kind of test: Antibacterial activity against Staphylococcus aureus at 35 degC after 24 hrs by broth dilution method.
The subject of test [17] is Penicillium chrysogenum. Kind of test: Fungicidal activity against Penicillium chrysogenum after 48 hrs by broth dilution method.
Test [18] relates to Staphylococcus aureus. Kind of test: Antibacterial activity against Staphylococcus aureus at 100 ug after 24 hrs by agar well diffusion method. Conditions: read-out: DIZ.
The test system of test [19] is Klebsiella pneumoniae. Kind of test: Bactericidal activity against Klebsiella pneumoniae after 24 hrs by NCCLS M7-A3 method.
Test [20] has as its system Bacillus subtilis. Kind of test: Bactericidal activity against Bacillus subtilis after 24 hrs by NCCLS M7-A3 method.
Test [21] relates to Aspergillus niger. Kind of test: Fungicidal activity against Aspergillus niger after 48 hrs by broth dilution method.
The test system of test [22] is Penicillium chrysogenum. Kind of test: Antifungal activity against Penicillium chrysogenum at 100 ug after 48 hrs by agar well diffusion method. To be noted: read-out: DIZ.
Test [23] deals with Pseudomonas aeruginosa. Kind of test: Antibacterial activity against Pseudomonas aeruginosa at 50 ug after 24 hrs by agar well diffusion method. Conditions: read-out: DIZ.
The subject of test [24] is Pseudomonas aeruginosa. Kind of test: Bactericidal activity against Pseudomonas aeruginosa after 24 hrs by broth dilution method.

In the case of `O=C(Nc1nc(-c2ccc(Cl)cc2)c[nH]1)c1n[nH]cc1-c1ccccc1`, the zone of inhibition at 100 µg/disc was found to be 34 mm in the test on Aspergillus niger [1]; 35 mm in the test on Bacillus subtilis [2]; 39 mm with Klebsiella pneumoniae [3]; 32 mm with Pseudomonas aeruginosa [7]; 34 mm in the test with Staphylococcus aureus [18]; 37 mm with Penicillium chrysogenum [22]. For the same molecule, the MIC is 50 µg against Klebsiella pneumoniae [4]; 12.5 µg against Bacillus subtilis [14]; 50 µg in the test on Staphylococcus aureus [16]; 25 µg with Penicillium chrysogenum [17]; 12.5 µg against Aspergillus niger [21]; 25 µg with Pseudomonas aeruginosa [24]. Besides, the zone of inhibition at 50 µg/disc in the test on Klebsiella pneumoniae [5] stood at 37 mm; in the test with Bacillus subtilis [6] it was 33 mm; in the test with Aspergillus niger [11], 30 mm; with Penicillium chrysogenum [13] it was 33 mm; with Staphylococcus aureus [15], 31 mm; in the test with Pseudomonas aeruginosa [23] it was 30 mm. The results for the MFC with Aspergillus niger [8] and against Penicillium chrysogenum [12] were 50 µg and 100 µg, respectively. Further, the MBC was determined as 200 µg in the test on Staphylococcus aureus [9], 100 µg with Pseudomonas aeruginosa [10], 200 µg in the test on Klebsiella pneumoniae [19] and 50 µg against Bacillus subtilis [20].

In the case of `O=C(Nc1nc(-c2ccc(Cl)cc2)c[nH]1)c1c[nH]cc1-c1ccccc1`, the zone of inhibition at 100 µg/disc with Aspergillus niger [1] was determined as 34 mm; in the test with Bacillus subtilis [2], 33 mm; in the test on Klebsiella pneumoniae [3], 36 mm; with Pseudomonas aeruginosa [7] it was 28 mm; with Staphylococcus aureus [18], 33 mm; in the test with Penicillium chrysogenum [22], 36 mm. The MIC amounted to 100 µg against Klebsiella pneumoniae [4]; 25 µg against Bacillus subtilis [14]; 50 µg with Staphylococcus aureus [16]; 50 µg against Penicillium chrysogenum [17]; 25 µg against Aspergillus niger [21]; 50 µg with Pseudomonas aeruginosa [24]. Further, the zone of inhibition at 50 µg/disc in the test with Klebsiella pneumoniae [5] amounted to 34 mm; with Bacillus subtilis [6], 29 mm; in the test with Aspergillus niger [11], 32 mm; in the test on Penicillium chrysogenum [13], 33 mm; in the test with Staphylococcus aureus [15], 30 mm; with Pseudomonas aeruginosa [23], 25 mm. In addition, the MFC in the test with Aspergillus niger [8] was 100 µg; in the test on Penicillium chrysogenum [12], over 200 µg. Also, the MBC with Staphylococcus aureus [9] was 200 µg; in the test with Pseudomonas aeruginosa [10], over 200 µg; against Klebsiella pneumoniae [19], over 200 µg; with Bacillus subtilis [20], 100 µg.

As for `O=C(/C=C/c1ccccc1)Nc1nc(-c2ccc(Cl)cc2)c[nH]1`, the zone of inhibition at 100 µg/disc with Aspergillus niger [1] amounted to 34 mm; in the test on Bacillus subtilis [2], 38 mm; in the test with Klebsiella pneumoniae [3], 40 mm; in the test with Pseudomonas aeruginosa [7], 33 mm; in the test with Staphylococcus aureus [18], 35 mm; with Penicillium chrysogenum [22], 38 mm. In addition, the MIC against Klebsiella pneumoniae [4] was found to be 25 µg; against Bacillus subtilis [14], 12.5 µg; with Staphylococcus aureus [16] it was 12.5 µg; with Penicillium chrysogenum [17], 25 µg; with Aspergillus niger [21] it was 12.5 µg; with Pseudomonas aeruginosa [24], 12.5 µg. The zone of inhibition at 50 µg/disc was 39 mm in the test with Klebsiella pneumoniae [5]; 36 mm with Bacillus subtilis [6]; 32 mm in the test with Aspergillus niger [11]; 35 mm in the test on Penicillium chrysogenum [13]; 32 mm in the test on Staphylococcus aureus [15]; 31 mm in the test with Pseudomonas aeruginosa [23]. Besides, the MFC was determined as 100 µg with Aspergillus niger [8] and 50 µg in the test with Penicillium chrysogenum [12]. The MBC came out at 50 µg with Staphylococcus aureus [9], 50 µg with Pseudomonas aeruginosa [10], 100 µg with Klebsiella pneumoniae [19] and 25 µg with Bacillus subtilis [20].

As to `O=C(N[C@H](CO)[C@H](O)c1ccc([N+](=O)[O-])cc1)C(Cl)Cl` [CHLORAMPHENICOL], the zone of inhibition at 100 µg/disc in the test with Bacillus subtilis [2] is 38 mm; in the test on Klebsiella pneumoniae [3], 42 mm; with Pseudomonas aeruginosa [7], 30 mm; in the test with Staphylococcus aureus [18], 35 mm. The MIC was determined as 12.5 µg in the test on Klebsiella pneumoniae [4], 6.25 µg against Bacillus subtilis [14], 6.25 µg against Staphylococcus aureus [16] and 6.25 µg in the test on Pseudomonas aeruginosa [24]. In addition, the zone of inhibition at 50 µg/disc in the test with Klebsiella pneumoniae [5] was 40 mm; in the test on Bacillus subtilis [6], 34 mm; in the test on Staphylococcus aureus [15] it was 33 mm; with Pseudomonas aeruginosa [23], 27 mm.

Regarding `CC(=O)N1CCN(c2ccc(OCC3COC(Cn4ccnc4)(c4ccc(Cl)cc4Cl)O3)cc2)CC1` (configuration not stated) [KETOCONAZOLE], the zone of inhibition at 100 µg/disc came to 36 mm in the test on Aspergillus niger [1] and 38 mm in the test on Penicillium chrysogenum [22]. Also, the zone of inhibition at 50 µg/disc came to 33 mm in the test on Aspergillus niger [11] and 36 mm with Penicillium chrysogenum [13]. In addition, the MIC in the test with Penicillium chrysogenum [17] worked out at 12.5 µg; in the test on Aspergillus niger [21], 6.25 µg.

Turning to `O=C(Nc1nc(-c2ccc(Cl)cc2)c[nH]1)C1=NNCC1c1ccccc1` (configuration not stated), the zone of inhibition at 100 µg/disc in the test with Aspergillus niger [1] stood at 30 mm; in the test with Bacillus subtilis [2] it was 27 mm; in the test on Klebsiella pneumoniae [3] it was 30 mm; in the test on Pseudomonas aeruginosa [7], 24 mm; in the test on Staphylococcus aureus [18] it was 27 mm; with Penicillium chrysogenum [22], 32 mm. Besides, the zone of inhibition at 50 µg/disc stood at 28 mm with Klebsiella pneumoniae [5]; 24 mm with Bacillus subtilis [6]; 28 mm with Aspergillus niger [11]; 29 mm with Penicillium chrysogenum [13]; 25 mm with Staphylococcus aureus [15]; 21 mm in the test on Pseudomonas aeruginosa [23].

In the case of `Cc1ccc(-c2c[nH]c(NC(=O)/C=C/c3ccccc3)n2)cc1`, the zone of inhibition at 100 µg/disc with Aspergillus niger [1] is 21 mm; in the test on Bacillus subtilis [2], 23 mm; in the test on Klebsiella pneumoniae [3], 25 mm; in the test with Pseudomonas aeruginosa [7] it was 16 mm; in the test on Staphylococcus aureus [18], 20 mm; in the test on Penicillium chrysogenum [22], 23 mm. In addition, the zone of inhibition at 50 µg/disc with Klebsiella pneumoniae [5] is 23 mm; in the test on Bacillus subtilis [6] it was 21 mm; in the test on Aspergillus niger [11], 18 mm; in the test with Penicillium chrysogenum [13], 20 mm; in the test on Staphylococcus aureus [15], 18 mm; in the test with Pseudomonas aeruginosa [23], 14 mm.

For `Cc1ccc(-c2csc(NC(=O)C3=NNCC3c3ccccc3)n2)cc1` (configuration not stated), the zone of inhibition at 100 µg/disc in the test with Aspergillus niger [1] is 16 mm; in the test with Bacillus subtilis [2], 18 mm; in the test on Klebsiella pneumoniae [3], 20 mm; with Pseudomonas aeruginosa [7], 13 mm; with Staphylococcus aureus [18] it was 15 mm; in the test on Penicillium chrysogenum [22] it was 18 mm. For the same molecule, the zone of inhibition at 50 µg/disc in the test on Klebsiella pneumoniae [5] was 18 mm; in the test on Bacillus subtilis [6] it was 16 mm; in the test on Aspergillus niger [11], 13 mm; with Penicillium chrysogenum [13], 15 mm; in the test on Staphylococcus aureus [15], 13 mm; in the test on Pseudomonas aeruginosa [23], 12 mm.

Regarding `O=C(Nc1nc(-c2ccccc2)co1)c1n[nH]cc1-c1ccccc1`, the zone of inhibition at 100 µg/disc in the test on Aspergillus niger [1] was 13 mm; in the test on Bacillus subtilis [2] it was 15 mm; in the test with Klebsiella pneumoniae [3], 17 mm; with Pseudomonas aeruginosa [7], 12 mm; in the test on Staphylococcus aureus [18], 12 mm; with Penicillium chrysogenum [22], 15 mm. The zone of inhibition at 50 µg/disc was 15 mm in the test with Klebsiella pneumoniae [5]; 13 mm in the test on Bacillus subtilis [6]; 10 mm in the test on Aspergillus niger [11]; 12 mm in the test with Penicillium chrysogenum [13]; 10 mm in the test with Staphylococcus aureus [15]; 10 mm in the test with Pseudomonas aeruginosa [23].

On to `Cc1ccc(-c2csc(NC(=O)/C=C/c3ccccc3)n2)cc1`, for which the zone of inhibition at 100 µg/disc in the test on Aspergillus niger [1] stood at 23 mm; in the test with Bacillus subtilis [2], 25 mm; with Klebsiella pneumoniae [3], 27 mm; in the test with Pseudomonas aeruginosa [7] it was 17 mm; with Staphylococcus aureus [18], 22 mm; with Penicillium chrysogenum [22], 25 mm. For the same molecule, the zone of inhibition at 50 µg/disc with Klebsiella pneumoniae [5] was 25 mm; in the test on Bacillus subtilis [6], 23 mm; in the test with Aspergillus niger [11] it was 19 mm; in the test with Penicillium chrysogenum [13] it was 22 mm; in the test on Staphylococcus aureus [15] it was 20 mm; with Pseudomonas aeruginosa [23] it was 15 mm.

As for `O=C(/C=C/c1ccccc1)Nc1nc(-c2ccc(Cl)cc2)co1`, the zone of inhibition at 100 µg/disc with Aspergillus niger [1] stood at 28 mm; in the test on Bacillus subtilis [2], 24 mm; with Klebsiella pneumoniae [3], 27 mm; in the test on Pseudomonas aeruginosa [7] it was 22 mm; in the test with Staphylococcus aureus [18] it was 25 mm; in the test on Penicillium chrysogenum [22], 30 mm. In addition, the zone of inhibition at 50 µg/disc in the test with Klebsiella pneumoniae [5] was 24 mm; in the test with Bacillus subtilis [6], 20 mm; with Aspergillus niger [11] it was 25 mm; in the test on Penicillium chrysogenum [13], 27 mm; in the test on Staphylococcus aureus [15], 22 mm; in the test with Pseudomonas aeruginosa [23], 21 mm.
